From patent US8106096B2, “Compositions and methods for treatment of optic nerve diseases” (University of Maryland, Baltimore, priority 2008, dated 2012)
“Also recorded” adds a separate entry of the source.

What was measured:
[1] = system: ED-1(+) extrinsic macrophages; test: Extrinsic macrophage (ED-1(+)) recruitment into ON after rAION induction; format: in vivo, rodent
Excerpt: The present inventor has evaluated the location of early ON-macrophage activity following rAION induction, using antibodies for both general cellular inflammation (IBA-1) and extrinsic macrophages (detected by antibody to ED-1). […] Few, if any extrinsic macrophages are present in normal uninfarcted ON (results not shown). Following rAION induction, ED-1(+) extrinsic macrophages enter the ON and cluster in the primary ischemic lesion site immediately behind the retina/ON junction. Little extrinsic macrophage infiltration occurs >250 microns post-ON/retina junction. […] Control (vehicle treated animals) show a similar pattern (data not shown). […] Extrinsic macrophages extend beyond the initial lesion site, even during early axonal degeneration occurring 6 days post-induction. Thus, it is possible to administer intraventricular GM-CSF to recruit extrinsic macrophages into the ON following rAION, and determine whether the macrophage recruitment approach is useful to enhancing ON-axonal repair and regeneration following ON infarct.

[2] = system: optic nerve (ON) edema; test: ON edema after rAION by direct fundus observation in the living animal; format: in vivo, rat; conditions: post-infarct administration (systemic and intravitreal), first 3 days post-induction; 1-3 days following rAION
Excerpt: PGJ2-treated animals have 72.4% of the number of naïve RGCs compared with 34.3 for vehicle treated animals (black bar, FIG. 2).

[3] = system: retinal ganglion cells (RGC); test: Stereological analysis of RGC numbers after rAION (ON stroke); format: in vivo, rat
Experimental: Stereological analysis of RGC numbers in naïve and rAION induced rat retinae treated with either PGJ2 or Vehicle (PBS). Animals were injected IV 1Xd for 3 days with either 100 mg/kg PGJ2 or PBS-vehicle. Animals were euthanized and retinae analyzed 30 days post-rAION induction. Average numbers based on 4 retinae/group; RGC stereology derived from Brn3a (+) RGC immunostaining.
Statistical analysis of 15-deoxy delta (12,14) PGJ2 administration to rats after optic nerve (ON) stroke. […] The ordinate represents the number of retinal ganglion cells in each retina. The abscissa represents the number of fields of cells counted to reach a statistically valid number as determined by the field of stereology. The green line represents the typical number of retinal ganglion cells in the untreated (naïve; no stroke) rat retina. The response of rat retina and optic nerve to vehicle treatment is shown in yellow. The response of PGJ2 treated animals is shown in Blue.
rAION-associated cell loss is analyzed using stereological analysis.
Rats were used for this experiment and ON stroke was administered to a 75% predicted loss of RGCs by the method of Bernstein et al., 2003, supra. RGC's were counted in each retina in the untreated (naïve; no stroke) and rats with rAION treated with PGJ2.

| Molecule | numbers of ED-1(+) cells in ON ([1]; 1 ug stereotactically injected into the superior colliculus, 6 days post-induction, vehicle controls show a similar pattern) | recruitment of ED-1(+) cells in rAION-induced ONs ([1]; intraventricular injection, data not shown) | ability to recruit extrinsic macrophages ([1]; rAION, IBA-1 and ED-1 antibodies, data not shown) | ON edema [2] | RGC survival ([3]; 30 days post-rAION induction) | number of RGCs relative to naïve RGCs ([3]; rat rAION, IV 1Xd for 3 days, 100 mg/kg, 30 days post-rAION induction, Brn3a(+) RGC stereology) | preservation of the neurons whose axons comprise the optic nerve ([3]; rats, ON stroke to a 75% predicted loss of RGCs, PGJ2 treatment after stroke) |
| --- | --- | --- | --- | --- | --- | --- | --- |
| GM-CSF: Granulocyte-Macrophage Colony Stimulating Factor; directly activates macrophages and recruits extrinsic macrophages | decreased numbers of ED-1(+) cells | significantly enhanced recruitment of ED-1(+) cells | has the ability to recruit extrinsic macrophages |  |  |  |  |
| CCCCC/C=C/C=C1/C(=O)C=C[C@@H]1C/C=C\CCCC(=O)O [PGJ2, 15 deoxy delta 12,14 prostaglandin J2] |  |  |  | reduced gross ON edema; also recorded: reduces ON edema | increased RGC survival | 72.4% | 35-50% |
